In US20150164767A1, “Skin Collagen Enhancing Agent” (J-Oil Mills, Inc., priority 2011, published 2015):

Experiments:
[1] = system: normal human dermal fibroblasts; assay: Type I collagen production by normal human dermal fibroblasts (ELISA, per unit protein); assay type: cell-based; details: for production amount of collagen (relative value, no sample = 100, per unit amount of protein): 1.5×10^−5 M, 48 hours culture, n=6, FIG. 1, t-test vs control; for Type I collagen amount (ng/μg protein) (average ± SD): 48 hours, n=6, control 8.91 ± 0.26, significant (<1%)
Method: Skin collagen enhancing activity of menaquinone-7 was compared with those of vitamin K1 and menaquinone-4, using normal human fibroblasts. A menaquinone-7 reagent (Wako Pure Chemical Industries, Ltd.) was used after purity validation by HPLC. The comparison was performed at a setting concentration of 1.5×10^−5 M, which is a maximum solubility of vitamin Ks in a cell culture system. Vitamin K1 (Wako Pure Chemical Industries, Ltd.) and menaquinone-4 (Sigma) were used after purity validation by HPLC.
Normal human dermal fibroblasts (manufactured by Kurabo Industries Ltd.) were inoculated on a 96-well microplate at a cell density of 2.0×10^4 cells per well using a Dulbecco's modified Eagle's medium (DMEM) (Sigma) containing 0.5% by weight of fetal bovine serum (FBS). The medium was replaced, 48 hours after the inoculation, by DMEM containing 0.5% by weight of FBS and menaquinone-7 in a concentration shown in Table 5. A test maximum concentration solution was prepared by dissolving menaquinone-7 in ethanol and diluting it 100 times with a DMEM containing 0.5% FBS. The testing method was confirmed to be valid using magnesium ascorbic acid phosphate (VC-PMg) as a positive control. The medium containing a sample was cultured for 48 hours, and the medium supernatant was collected and subjected to ELISA for measuring the amount of type I collagen. The cells were lysed in a 0.5% Triton X-100 solution, and the protein amount was measured.
A medium and a type I collagen solution for a standard curve were placed on each well of a high-absorption ELISA plate, and coating at 37° C. for 2 hours was performed, followed by blocking with a 1% bovine serum albumin (BSA) solution at 37° C. for 1 hour. Primary antibody reaction was performed using anti-human collagen type I antibody (rabbit) diluted with a 0.3% BSA solution at 37° C. for 1 hour. Secondary antibody reaction was performed using Histofine MAX-PO(R) (rabbit) diluted with a phosphate buffer at 37° C. for 1 hour. A phosphate-citrate buffer (0.1 M, pH 4.0) solution containing 0.3 mg/mL of 2,2′-azinobis(3-ethylbenzothiazoline-6-sulfonic acid)diammounium salt (ABTS) and 0.03% hydrogen peroxide was added thereto, followed by reaction for 20 min The absorbance of the reaction solution was measured at 405 nm with a microplate reader.
The type I collagen amount in the medium was determined from the standard curve prepared by measurement on the same ELISA plate, and the type I collagen amount per unit amount of protein was calculated by dividing the type I collagen amount in the medium by the total protein amount of the cells.
The test was performed at n=6 for each group containing a sample, and the results are each shown as an average +standard deviation. The statistical processing was performed by a Student t-test against the control group not containing the sample, and the symbol * indicates a significance level of less than 1%.
The collagen enhancing activities of menaquinone-7 for human dermal fibroblasts were investigated in the concentration range shown in Table 5. The test of each group containing a sample was performed at n=6, and the results are each shown as an average value. The statistical processing was performed by a Student t-test against the control group not containing the sample, and the symbol * indicates a significance level of less than 1%.

[2] = Vitamin K (MK-7) concentration in rat skin after feeding a menaquinone-7-containing diet; assay type: in vivo; details: Wistar rats, diet with menaquinone-7 150 μg/g, free feeding 90 days, average ± SD
Method: Wistar rats (male, 5-week old) were freely fed with purified feed AIN93G (manufactured by Oriental Yeast) for one week for habituation, and then separated into groups each consisting of three rats so that the total weight of each group was the same. Three rats in each group were freely fed with a rat standard diet (AIN93G) or a menaquinone-7-containing feed (menaquinone-7: 150 μg/g) composed of rat standard diet (AIN93G) and menaquinone-7 for 90 days. Then, vitamin K concentration in the skin was measured. Vitamin K was analyzed by high-performance liquid chromatography with post-column reduction using platinum black and fluorescence detection (Sato, et al., Biochim Biophys. Acta, 1622, 145-150, 2003).

[3] = system: skin collagen; assay: Skin collagen amount in rats fed MK7-containing diets (Sircol Collagen Assay Kit); assay type: in vivo, Crl:CD(SD)(SPF) rats; details: 90 days; for Type I collagen amount (μg/mg wet skin weight) (average ± SD): MK7-free 38.43 ± 4.56, not significant; for Rate of increase of collagen (%): vs MK7-free diet group
Method: Four-week old male Crl:CD(SD)(SPF) rats were habituated after arrival till the start of administration, including one week for quarantine. During the quarantine and habituation, general conditions were observed every day, and the weights were measured on the first day (the day following the arrival), the third day, and the seventh day. The rats were separated into four groups each consisting of five rats so that the total weight of each group was the same.
Rats were freely fed for 90 days with any one of three types of menaquinone-7-containing feeds by adding menaquinone-7 to rat standard diet AIN93G: high MK7 diet (menaquinone-7: 45.4 μg/g diet), moderate MK7 diet (menaquinone-7: 15 μg/g diet), and low MK7 diet (menaquinone-7: 4.54 μg/g diet); or MK7-free diet.
The rats were subjected to fasting on the last day and then dissected. The hair at the abdomen region was carefully shaved with hair clippers, and the skin including the derm was sampled. The skin was cut into about 100 mg pieces and they were exactly weighed. The skin collagen amount was measured with a skin collagen measurement kit (trade name: Sircol Collagen Assay Kit, manufactured by Biocolor). Increased amounts of collagen in three groups fed with the diet containing MK7 were compared with that in the group fed with the MK7-free diet as a control. The statistical processing was performed by a Student t-test. A significance level P<0.05 was determined as to have significant difference. […] In the table, the symbol * means a significant difference.

Row | MK-7 concentration (ng/g) in skin [2] [ng/g] | Compound | production amount of collagen (relative value, no sample = 100, per unit amount of protein) [1] | production amount of collagen ([1]; 6.0×10^−5 M) | Type I collagen amount (μg/mg wet skin weight) (average ± SD) ([3]; MK7 4.54 μg/g feed) | Rate of increase of collagen (%) ([3]; MK7 4.54 μg/g feed) | Type I collagen amount (μg/mg wet skin weight) (average ± SD) ([3]; MK7 15.0 μg/g feed) | Rate of increase of collagen (%) ([3]; MK7 15.0 μg/g feed) | Rate of increase of collagen (%) ([3]; MK7 45.4 μg/g feed) | amount of collagen in skin, dose dependence ([3]; oral administration, 4.54 to 45.4 μg/g feed) | Type I collagen amount (ng/μg protein) (average ± SD) ([1]; 0.5 × 10^−6M) | Type I collagen amount (ng/μg protein) (average ± SD) ([1]; 0.5 × 10^−6M, listed as menaquinone-7) | Type I collagen amount (ng/μg protein) (average ± SD) ([1]; 1 × 10^−5M) | Type I collagen amount (ng/μg protein) (average ± SD) ([1]; 1 × 10^−6M) | Type I collagen amount (ng/μg protein) (average ± SD) ([1]; 3 × 10^−6M) | menaquinone-7 amount necessary for promoting collagen production ([1]; conversion of 0.5×10^−6 M) [ng/g] | menaquinone-7 amount necessary for promoting collagen production ([1]; human dermal fibroblasts, lowest concentration tested) [nM]
1 | – | CC(C)=CCC/C(C)=C/CC/C(C)=C/CC/C(C)=C/CC1=C(C)C(=O)c2ccccc2C1=O [Menaquinone-4, menaquinone-4, reference compound] | only menaquinone-7 significantly increased | did not increase at all | – | – | – | – | – | – | – | – | – | – | – | – | –
2 | 427 ± 243 | CC(C)=CCC/C(C)=C/CC/C(C)=C/CC/C(C)=C/CC/C(C)=C/CC/C(C)=C/CC/C(C)=C/CC1=C(C)C(=O)c2ccccc2C1=O [Menaquinone-7, menaquinone-7] | significantly increased | – | 40.97 ± 6.69 | 6.6 | 43.33 ± 2.42 | 12.8 | 17.6 | tendency of dose-dependently increasing the amount of collagen | 10.66 ± 0.48 | significantly promotes production of type I collagen | 11.03 ± 0.23 | 10.26 ± 0.44 | 10.41 ± 0.49 | 325 | 500
3 | – | CC1=C(C/C=C(\C)CCC[C@H](C)CCC[C@H](C)CCCC(C)C)C(=O)c2ccccc2C1=O [vitamin K1, reference compound] | only menaquinone-7 significantly increased | – | – | – | – | – | – | – | – | – | – | – | – | – | –
